How the values were obtained:
Experiment in all cases: KINOMEscan competition binding
Settings in all cases: compound 10.0 µM
PDPK1 (human) = PDPK1 (human) (UniProt O15530)
[1] = tested on: ABL1 (human), P00519 [E255K]
[2] = tested on: EIF2AK4 KD2 (human), Q9P2K8 [S808G]
MAP3K9 (human) = MAP3K9 (human) (UniProt P80192)
TBK1 (human) = TBK1 (human) (UniProt Q9UHD2)
HIPK4 (human) = HIPK4 (human) (UniProt Q8NE63)
MYLK2 (human) = MYLK2 (human) (UniProt Q9H1R3)
[3] = tested on: EGFR (human), P00533 [T790M/L858R]
CHUK (human) = CHUK (human) (UniProt O15111)
Sequence of CHUK (human) (O15111 whole entry, looked up): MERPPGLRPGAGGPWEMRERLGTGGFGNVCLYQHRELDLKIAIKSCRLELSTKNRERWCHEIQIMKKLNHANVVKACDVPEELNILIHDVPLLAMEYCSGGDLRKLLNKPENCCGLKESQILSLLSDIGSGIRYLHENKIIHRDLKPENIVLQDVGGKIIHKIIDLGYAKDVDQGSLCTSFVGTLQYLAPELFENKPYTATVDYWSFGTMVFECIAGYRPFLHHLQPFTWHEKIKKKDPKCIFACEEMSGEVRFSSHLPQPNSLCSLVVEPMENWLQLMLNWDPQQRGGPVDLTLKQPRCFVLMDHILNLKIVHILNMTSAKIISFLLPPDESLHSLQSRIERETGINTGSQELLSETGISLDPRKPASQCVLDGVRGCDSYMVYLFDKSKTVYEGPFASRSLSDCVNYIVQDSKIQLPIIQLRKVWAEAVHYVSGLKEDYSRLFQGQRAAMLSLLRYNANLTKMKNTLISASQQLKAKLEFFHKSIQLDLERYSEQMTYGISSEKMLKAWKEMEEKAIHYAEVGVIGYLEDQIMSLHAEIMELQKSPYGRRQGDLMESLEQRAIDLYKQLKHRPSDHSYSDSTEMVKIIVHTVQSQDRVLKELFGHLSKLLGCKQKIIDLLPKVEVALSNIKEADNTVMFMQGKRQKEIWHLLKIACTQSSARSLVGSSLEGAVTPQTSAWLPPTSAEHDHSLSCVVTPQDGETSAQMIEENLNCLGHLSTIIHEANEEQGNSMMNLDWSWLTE

PAK6 (human) = PAK6 (human) (UniProt Q9NQU5)
PDGFRA (human) = PDGFRA (human) (UniProt P16234)
CASK (human) = CASK (human) (UniProt O14936)
RET (human) = RET (human) (UniProt P07949)
Sequence of RET (human) (P07949 whole entry, looked up): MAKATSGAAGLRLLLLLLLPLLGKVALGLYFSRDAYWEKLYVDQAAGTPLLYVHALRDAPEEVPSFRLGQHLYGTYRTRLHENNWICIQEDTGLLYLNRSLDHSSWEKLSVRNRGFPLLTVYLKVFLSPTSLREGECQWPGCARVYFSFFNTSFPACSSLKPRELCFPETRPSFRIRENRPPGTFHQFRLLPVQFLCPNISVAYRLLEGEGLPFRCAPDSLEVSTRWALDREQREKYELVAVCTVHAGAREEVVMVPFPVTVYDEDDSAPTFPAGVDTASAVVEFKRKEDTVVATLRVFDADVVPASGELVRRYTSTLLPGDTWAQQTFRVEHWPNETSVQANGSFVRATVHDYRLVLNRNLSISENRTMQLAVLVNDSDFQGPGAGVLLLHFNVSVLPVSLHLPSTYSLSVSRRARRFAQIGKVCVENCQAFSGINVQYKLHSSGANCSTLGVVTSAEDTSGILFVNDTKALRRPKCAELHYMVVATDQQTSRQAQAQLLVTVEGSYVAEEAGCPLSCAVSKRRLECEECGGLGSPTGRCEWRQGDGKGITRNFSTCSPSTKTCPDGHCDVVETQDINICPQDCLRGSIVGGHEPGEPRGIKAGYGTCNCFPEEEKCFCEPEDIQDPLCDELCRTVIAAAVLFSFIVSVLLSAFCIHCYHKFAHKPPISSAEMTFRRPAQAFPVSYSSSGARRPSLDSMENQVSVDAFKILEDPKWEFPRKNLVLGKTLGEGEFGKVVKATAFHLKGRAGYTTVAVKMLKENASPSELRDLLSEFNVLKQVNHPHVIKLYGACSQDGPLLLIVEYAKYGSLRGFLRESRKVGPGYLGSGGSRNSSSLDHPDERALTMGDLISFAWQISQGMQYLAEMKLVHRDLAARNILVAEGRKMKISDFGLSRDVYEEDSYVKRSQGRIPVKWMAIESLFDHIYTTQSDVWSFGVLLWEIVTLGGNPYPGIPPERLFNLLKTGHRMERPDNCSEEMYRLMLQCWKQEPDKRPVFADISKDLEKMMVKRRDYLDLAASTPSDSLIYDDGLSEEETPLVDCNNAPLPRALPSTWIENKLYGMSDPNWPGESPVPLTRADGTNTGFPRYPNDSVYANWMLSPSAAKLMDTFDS

WEE1 (human) = WEE1 (human) (UniProt P30291)
Sequence of WEE1 (human) (P30291 whole entry, looked up): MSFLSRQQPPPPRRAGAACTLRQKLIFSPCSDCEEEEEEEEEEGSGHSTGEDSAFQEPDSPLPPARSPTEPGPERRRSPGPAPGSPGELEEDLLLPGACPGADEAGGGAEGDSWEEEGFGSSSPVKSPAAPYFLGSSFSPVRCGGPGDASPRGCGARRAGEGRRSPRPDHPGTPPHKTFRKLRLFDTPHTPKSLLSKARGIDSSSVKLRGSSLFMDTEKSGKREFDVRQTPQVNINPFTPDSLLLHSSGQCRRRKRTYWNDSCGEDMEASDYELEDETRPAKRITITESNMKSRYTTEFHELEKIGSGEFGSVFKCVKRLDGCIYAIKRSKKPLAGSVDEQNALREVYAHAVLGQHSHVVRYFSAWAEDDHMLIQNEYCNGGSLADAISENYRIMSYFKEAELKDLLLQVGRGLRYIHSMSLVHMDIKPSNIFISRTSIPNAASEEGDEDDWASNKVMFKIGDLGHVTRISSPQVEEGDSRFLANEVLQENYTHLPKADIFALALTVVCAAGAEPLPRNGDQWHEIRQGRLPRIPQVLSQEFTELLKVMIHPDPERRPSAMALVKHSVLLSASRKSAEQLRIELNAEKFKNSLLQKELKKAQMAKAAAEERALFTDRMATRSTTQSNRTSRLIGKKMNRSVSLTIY

ADCK4 (human) = ADCK4 (human) (UniProt Q96D53)
Sequence of ADCK4 (human) (Q96D53 whole entry, looked up): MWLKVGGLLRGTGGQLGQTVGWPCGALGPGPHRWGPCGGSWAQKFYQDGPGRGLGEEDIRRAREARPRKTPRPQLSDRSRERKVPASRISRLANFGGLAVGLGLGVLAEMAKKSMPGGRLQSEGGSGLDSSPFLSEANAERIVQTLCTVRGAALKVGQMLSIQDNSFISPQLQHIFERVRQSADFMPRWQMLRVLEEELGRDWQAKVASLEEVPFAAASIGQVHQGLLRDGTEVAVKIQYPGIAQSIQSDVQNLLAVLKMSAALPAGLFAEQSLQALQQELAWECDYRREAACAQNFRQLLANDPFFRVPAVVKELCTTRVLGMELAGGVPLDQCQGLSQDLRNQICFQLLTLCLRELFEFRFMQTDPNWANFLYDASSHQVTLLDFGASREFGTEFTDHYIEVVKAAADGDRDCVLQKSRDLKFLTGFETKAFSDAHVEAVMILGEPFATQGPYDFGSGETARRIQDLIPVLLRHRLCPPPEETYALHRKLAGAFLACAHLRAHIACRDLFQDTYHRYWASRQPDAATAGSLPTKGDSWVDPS

CAMK1D (human) = CAMK1D (human) (UniProt Q8IU85)
Sequence of CAMK1D (human) (Q8IU85 whole entry, looked up): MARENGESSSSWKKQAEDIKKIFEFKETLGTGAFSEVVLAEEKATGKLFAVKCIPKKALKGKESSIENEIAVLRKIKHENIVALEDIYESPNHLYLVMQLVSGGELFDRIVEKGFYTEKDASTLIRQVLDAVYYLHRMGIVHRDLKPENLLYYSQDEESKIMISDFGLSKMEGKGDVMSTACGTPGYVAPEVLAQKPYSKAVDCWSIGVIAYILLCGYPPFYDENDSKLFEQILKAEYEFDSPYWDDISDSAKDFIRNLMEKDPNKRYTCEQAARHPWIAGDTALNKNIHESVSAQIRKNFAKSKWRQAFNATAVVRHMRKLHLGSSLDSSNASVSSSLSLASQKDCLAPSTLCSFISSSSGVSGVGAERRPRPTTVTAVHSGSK

LCK (human) = LCK (human) (UniProt P06239)
TIE1 (human) = TIE1 (human) (UniProt P35590)
[4] = tested on: KIT (human), P10721 [V559D/V654A]
STK38 (human) = STK38 (human) (UniProt Q15208)
[5] = tested on: FLT3 (human), P36888 [N841I]
SNRK (human) = SNRK (human) (UniProt Q9NRH2)
MAP3K12 (human) = MAP3K12 (human) (UniProt Q12852)
BRAF (human) = BRAF (human) (UniProt P15056)
CaMK1 (human) = CaMK1 (human) (UniProt Q14012)
PRKAA1 (human) = PRKAA1 (human) (UniProt Q13131)
Sequence of PRKAA1 (human) (Q13131 whole entry, looked up): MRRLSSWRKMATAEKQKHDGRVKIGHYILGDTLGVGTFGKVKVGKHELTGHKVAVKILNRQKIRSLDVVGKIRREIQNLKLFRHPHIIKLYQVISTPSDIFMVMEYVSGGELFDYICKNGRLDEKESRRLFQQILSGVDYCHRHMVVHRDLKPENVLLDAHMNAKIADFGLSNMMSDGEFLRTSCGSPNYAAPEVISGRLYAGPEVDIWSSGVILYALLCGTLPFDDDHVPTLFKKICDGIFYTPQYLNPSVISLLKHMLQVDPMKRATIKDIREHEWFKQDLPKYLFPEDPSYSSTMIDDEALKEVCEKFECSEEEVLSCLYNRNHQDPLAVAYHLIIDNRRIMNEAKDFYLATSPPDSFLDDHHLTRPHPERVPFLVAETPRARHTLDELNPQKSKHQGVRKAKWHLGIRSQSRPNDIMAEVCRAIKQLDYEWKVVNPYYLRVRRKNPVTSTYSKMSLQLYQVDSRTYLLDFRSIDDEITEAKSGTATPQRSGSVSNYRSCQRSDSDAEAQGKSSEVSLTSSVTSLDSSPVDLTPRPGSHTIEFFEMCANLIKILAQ

MERTK (human) = MERTK (human) (UniProt Q12866)
FLT1 (human) = FLT1 (human) (UniProt P17948)
MAP3K5 (human) = MAP3K5 (human) (UniProt Q99683)
EPHB2 (human) = EPHB2 (human) (UniProt P29323)
PRKD1 (human) = PRKD1 (human) (UniProt Q15139)
MAP3K13 (human) = MAP3K13 (human) (UniProt O43283)
PIP4K2C (human) = PIP4K2C (human) (UniProt Q8TBX8)
MAK (human) = MAK (human) (UniProt P20794)
CSK (human) = CSK (human) (UniProt P41240)
RIOK3 (human) = RIOK3 (human) (UniProt O14730)
TAOK2 (human) = TAOK2 (human) (UniProt Q9UL54)
[6] = tested on: FLT3 (human), P36888 [K663Q]
AKT3 (human) = AKT3 (human) (UniProt Q9Y243)
CDK9 (human) = CDK9 (human) (UniProt P50750)
PRKD2 (human) = PRKD2 (human) (UniProt Q9BZL6)
AKT2 (human) = AKT2 (human) (UniProt P31751)
Sequence of AKT2 (human) (P31751 whole entry, looked up): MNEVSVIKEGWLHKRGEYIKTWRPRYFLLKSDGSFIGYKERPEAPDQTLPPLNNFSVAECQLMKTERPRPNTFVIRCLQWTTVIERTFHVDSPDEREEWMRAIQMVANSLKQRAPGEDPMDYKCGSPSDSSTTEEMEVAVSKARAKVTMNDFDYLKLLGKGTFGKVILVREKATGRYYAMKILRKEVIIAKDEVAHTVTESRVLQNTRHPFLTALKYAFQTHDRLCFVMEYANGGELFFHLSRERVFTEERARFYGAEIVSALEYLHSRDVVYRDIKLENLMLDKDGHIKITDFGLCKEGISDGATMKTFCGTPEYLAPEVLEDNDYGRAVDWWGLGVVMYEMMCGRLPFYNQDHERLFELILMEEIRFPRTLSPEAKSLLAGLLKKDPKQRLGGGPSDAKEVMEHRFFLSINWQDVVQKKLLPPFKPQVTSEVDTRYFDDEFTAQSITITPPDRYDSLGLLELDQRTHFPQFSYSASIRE

Sequence of PDPK1 (human) (O15530 whole entry, looked up): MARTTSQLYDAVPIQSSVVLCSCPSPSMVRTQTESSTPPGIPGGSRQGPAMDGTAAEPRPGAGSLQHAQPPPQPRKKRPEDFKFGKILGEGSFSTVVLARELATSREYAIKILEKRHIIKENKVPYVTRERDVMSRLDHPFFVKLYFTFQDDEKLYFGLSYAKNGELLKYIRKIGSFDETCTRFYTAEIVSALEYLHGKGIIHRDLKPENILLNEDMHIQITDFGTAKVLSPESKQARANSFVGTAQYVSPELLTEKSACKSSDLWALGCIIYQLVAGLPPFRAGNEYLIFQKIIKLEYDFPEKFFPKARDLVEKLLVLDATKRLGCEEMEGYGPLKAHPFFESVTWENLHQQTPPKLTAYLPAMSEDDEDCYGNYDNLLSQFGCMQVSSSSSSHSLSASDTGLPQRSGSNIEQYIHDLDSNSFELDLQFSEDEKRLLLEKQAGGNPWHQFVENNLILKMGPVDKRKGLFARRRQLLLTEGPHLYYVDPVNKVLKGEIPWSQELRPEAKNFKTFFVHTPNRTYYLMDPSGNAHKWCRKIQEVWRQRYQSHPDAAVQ

Q: Which results are given for `Cc1cc([C@@H](C)Nc2ccccc2C(=O)O)c2nc(N3CCOCC3)cc(=O)n2c1`?
A: kinase still bound, per cent of control (PDPK1 (human)): 100%; kinase still bound, per cent of control [1]: 100%; kinase still bound, per cent of control [2]: 78%; kinase still bound, per cent of control (MAP3K9 (human)): 100%; kinase still bound, per cent of control (TBK1 (human)): 100%; kinase still bound, per cent of control (HIPK4 (human)): 56%; kinase still bound, per cent of control (MYLK2 (human)): 94%; kinase still bound, per cent of control [3]: 100%; kinase still bound, per cent of control (CHUK (human)): 69%; kinase still bound, per cent of control (PAK6 (human)): 96%; kinase still bound, per cent of control (PDGFRA (human)): 100%; kinase still bound, per cent of control (CASK (human)): 100%; kinase still bound, per cent of control (RET (human)): 96%; kinase still bound, per cent of control (WEE1 (human)): 88%; kinase still bound, per cent of control (ADCK4 (human)): 95%; kinase still bound, per cent of control (CAMK1D (human)): 93%; kinase still bound, per cent of control (LCK (human)): 81%; kinase still bound, per cent of control (TIE1 (human)): 100%; kinase still bound, per cent of control [4]: 100%; kinase still bound, per cent of control (STK38 (human)): 84%; kinase still bound, per cent of control [5]: 26%; kinase still bound, per cent of control (SNRK (human)): 54%; kinase still bound, per cent of control (MAP3K12 (human)): 98%; kinase still bound, per cent of control (BRAF (human)): 74%; kinase still bound, per cent of control (CaMK1 (human)): 94%; kinase still bound, per cent of control (PRKAA1 (human)): 62%; kinase still bound, per cent of control (MERTK (human)): 100%; kinase still bound, per cent of control (FLT1 (human)): 96%; kinase still bound, per cent of control (MAP3K5 (human)): 100%; kinase still bound, per cent of control (EPHB2 (human)): 100%; kinase still bound, per cent of control (PRKD1 (human)): 100%; kinase still bound, per cent of control (MAP3K13 (human)): 100%; kinase still bound, per cent of control (PIP4K2C (human)): 94%; kinase still bound, per cent of control (MAK (human)): 100%; kinase still bound, per cent of control (CSK (human)): 98%; kinase still bound, per cent of control (RIOK3 (human)): 100%; kinase still bound, per cent of control (TAOK2 (human)): 89%; kinase still bound, per cent of control [6]: 15%; kinase still bound, per cent of control (AKT3 (human)): 80%; kinase still bound, per cent of control (CDK9 (human)): 89%; kinase still bound, per cent of control (PRKD2 (human)): 97%; kinase still bound, per cent of control (AKT2 (human)): 100%

— the kinase profiling compilation of Christmann-Franck et al. (2016)
